From the Kinase Knowledgebase extract (Sharma et al. 2016)

target: MAPK14 (human) (UniProt Q16539); experiment: Assessment of MAPK14 Kinase Activity; settings: not given
Sequence (Q16539 whole entry, looked up): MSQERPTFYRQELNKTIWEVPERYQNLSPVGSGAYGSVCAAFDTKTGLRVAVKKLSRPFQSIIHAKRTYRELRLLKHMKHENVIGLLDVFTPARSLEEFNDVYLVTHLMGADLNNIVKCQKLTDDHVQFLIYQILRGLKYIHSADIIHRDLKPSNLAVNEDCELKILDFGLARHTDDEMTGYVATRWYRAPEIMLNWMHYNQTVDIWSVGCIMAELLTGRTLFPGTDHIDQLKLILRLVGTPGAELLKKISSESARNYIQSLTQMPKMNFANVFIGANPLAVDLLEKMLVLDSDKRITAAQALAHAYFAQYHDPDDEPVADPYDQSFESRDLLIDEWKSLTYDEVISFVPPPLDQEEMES

Compound	IC50 [nM]	Kd [nM]	Ki [nM]
Clc1ccc(-c2n[nH]c(N3CCc4ccccc4C3)c2-c2ccncc2)cc1	190		
CC[C@@H](NC(=O)c1cn2ncnc(Nc3cc(NC(=O)c4cc(F)cc(N5CCOCC5)c4)ccc3C)c2c1C)OC	2		
Cc1cccc(Nc2c(C(=O)N3CC[C@H](O)C3)sc3c2ccc(=O)n3-c2c(F)cccc2F)n1	5 to 500		
CN(C)C(=O)[C@@H]1CCCN1c1nccc(Oc2ccc(NC(=O)c3cc(F)cc(N4CCCCC4)c3)c3ccccc23)n1	126		
Cc1nc(Nc2c(C(=O)N3CC[C@@H](O)C3)sc3c2ccc(=O)n3-c2c(F)cccc2F)ccc1F	5 to 500		
CC(C)Nc1ncc2c(n1)N(CC(=O)O)C(=O)N(c1ccccc1Cl)C2	< 10000		
[O-][n+]1ccc2c(-c3ccc(F)cc3F)cc(N3CCNCC3)nc2c1-c1c(F)cccc1F	0.63		
Cc1ccc(C(=O)NC2CC2)cc1Nc1nc(-c2cccc(C#N)c2)c(C(=O)NCc2ccccc2)s1	50 to 100		
Fc1ccc(-c2nc(SCc3ccccc3)[nH]c2-c2ccnc(Cl)c2)cc1	1900		
O=C(Nc1ccc(Oc2ccnc(NC[C@@H]3CCCO3)n2)c2ccccc12)c1cc(F)cc(N2CCCCC2)c1	2.3		
Cc1c(NC(=O)c2cc(F)cc(N3CCOCC3)c2)sc(CN2CCOCC2)c1Cl	< 5000		
O=C(Nc1ccc(OCCN2CCOCC2)c2ccccc12)c1cccc(-c2cccc(F)c2)c1	1000		
CN(CCO)c1nccc(Oc2ccc(NC(=O)c3cc(F)cc(N4CCOCC4)c3)c3ccccc23)n1	18.7		
CC(Oc1nncc2cc(Nc3ccc(F)cc3)ccc12)C(F)(F)F (configuration not stated)	9.1		
CCCCC=Cc1cccc(C(=O)Nc2ccc(OCCN3CCOCC3)c3ccccc23)c1	> 10000		
CSc1nc(-c2ccc(F)cc2)c(-c2ccnc(N(C)C)c2)[nH]1	210		
Cc1cccc(Nc2c(C(=O)N3CC[C@@H](O)C3)sc3c2ccc(=O)n3-c2c(F)cccc2F)n1	5 to 500		
CSc1nc(-c2ccc(F)cc2)c(-c2ccnc(NC3CCc4ccccc43)c2)[nH]1 (configuration not stated)	30		
Oc1cc(-c2nc(-c3ccccc3)[nH]c2-c2ccncc2)ccc1Cl	0.1		
Cc1cccc(Nc2c(C(=O)N3CCC[C@H]3CO)sc3c2ccc(=O)n3-c2c(F)cccc2F)n1	5 to 500		
O=C1Nc2nc(Nc3ccc(O)cc3)ncc2CN1c1ccccc1Cl		32	
Cc1c(NC(=O)Nc2cc(C(C)(C)C)nn2-c2ccc(F)cc2F)sc(CN2CCOCC2)c1Cl	< 5000		
O=C(c1sc2c(ccc(=O)n2-c2c(F)cccc2F)c1Nc1cccc(CO)n1)N1CC[C@@H](O)C1	5 to 500		
Fc1ccc(Oc2cc3cnc(NC4CCOCC4)nc3cn2)c(F)c1	< 300		
Clc1ccc(-c2n[nH]c(N3CCC4CCCCC4C3)c2-c2ccncc2)cc1 (configuration not stated)	260		
CC1CC(C)CN(c2[nH]nc(-c3ccc(Cl)cc3)c2-c2ccncc2)C1 (configuration not stated)	130		
Cc1c(F)cc(C(=O)NC2CC2)cc1-c1ccn2c(C(C)(C)N)nnc2c1	15.4		
c1ccc(-c2noc(CN3CCCCC3)c2-c2ccnc(NC3CCCCC3)n2)cc1			2

same assay, conditions: concentration not given here

Compound	inhibition [%]
CC1=C(C(=O)Nc2cc3cn[nH]c3cc2F)C(c2ccc(C(F)(F)F)cc2)CC(=O)N1 (configuration not stated)	-3

target: MAPK14 (human) (UniProt Q16539); experiment: Inhibition of MAPK14 Kinase Activity; settings: not given

Compound	IC50 [nM]	Kd [nM]
Cc1ccc(C(=O)NC2CC2)cc1-c1cc2cnnc(-c3ccc(F)cc3C)c2n(C)c1=O	3.1	
Cc1ccc(-n2nc(C(C)(C)CO)cc2NC(=O)NCc2cc(F)ccc2Oc2ccc3c(cnn3CCO)c2)cc1	< 1	
CC(C)(NCCc1ccc(-n2c(N)c(C(=O)c3ccc(F)cc3F)ccc2=O)cc1)C(=O)OC1CC2CCC1C2 (configuration not stated)	< 100	
O=C1c2ccccc2COc2cc(Nc3ccc(F)cc3[N+](=O)[O-])ccc21	38	
CCC(=O)n1c(=O)c(-c2ccc(F)cc2)c(-c2ccncc2)c2ccccc21	3100	
O=C(NCCCN1CCOCC1)c1ccc2c(c1)C(=O)c1ccc(Nc3ccc(F)cc3F)cc1CC2	10	
O=C(Nc1cc(Oc2ccnc3[nH]c(=O)[nH]c23)c(F)c(F)c1F)c1cccc(OC(F)(F)F)c1	608	
CCCn1c(-c2ccc([S+](C)[O-])cc2)nc(-c2ccncc2)c1-c1ccc2cc(OC)ccc2c1 (configuration not stated)	> 16000	
COc1ccc(Nc2nc(Nc3ccc4ncccc4c3)nc(NC(Cc3c[nH]c4ncccc34)C(N)=O)n2)cc1OC (configuration not stated)	> 40000	
COc1cc2nccc(Oc3ccc(NC(=O)c4c(C)n(C)n(-c5ccccc5)c4=O)cc3F)c2cc1OC	2690	
CNc1cc2c(ccc(=O)n2-c2c(F)cccc2F)c(-c2ccc(F)cc2F)n1	0.51	
Cc1ccc(C(=O)NC2CC2)cc1-c1ccc(C(=O)N(CCCO)Cc2ccccc2)cc1	< 10000	
CC(C)(C)c1cc(NC(=O)NCc2ccccc2Sc2ccc3nnc(-c4ccccc4[S+]([O-])CCO)n3c2)n(-c2ccc(O)c(Cl)c2)n1 (configuration not stated)	10	
O=C(Nc1cc(Nc2ccc3c(c2)CCc2ccc(OC[C@H](O)CO)cc2C3=O)ccc1F)c1cccs1	0.7	
CNC(=O)c1ccc(Cn2c(C)cc(OCc3ccc(F)cc3F)c(Br)c2=O)cc1	25	
O=C(Nc1ccccc1)Nc1cc(Cl)c([N+](=O)[O-])cc1O		100 to 1000
Cn1ccc(S(=O)(=O)Nc2ccc(F)c(C(=O)c3c[nH]c4ncc(Cl)cc34)c2F)n1	≤ 10000	
CCCCN(C)c1nc(NCCc2ccccc2OC)nc(NCCc2c[nH]c3ncccc23)n1	> 40000	

Compound	IC50 [nM]	Kd [nM]
CC(n1c(N)nc2ccc(-c3[nH]c(-c4c(F)cccc4F)nc3-c3ccc(F)cc3)nc21)C(C)(C)C (configuration not stated)	3.3	
CNC(=O)Nc1cc(COc2ccc(NC(=O)Nc3cc(C(C)(C)C)nn3-c3ccc(C)cc3)c3ccccc23)ccn1	< 10	
COc1ccccc1-c1nnc2sc(COc3ccc(F)cc3)nn12	650	
CONC(=O)c1ccc(C)c(Nc2nc(NCc3cccc(C)c3)nc(N[C@H](C)C(C)(C)C)n2)c1	15	
COc1ccccc1CCNc1nc(Nc2ccc3ncccc3c2)nc(NC(Cc2c[nH]c3ncccc23)C(N)=O)n1 (configuration not stated)	> 40000	
CC(C)c1nnc2ccc(Sc3cc(Cl)c(Cl)cc3Cl)cn12	8240	
CC(C)(C)c1cc(NC(=O)NCc2cc(F)ccc2Oc2ccc3c(cnn3CCO)c2)n(-c2ccc(CO)cc2)n1	< 1	
Fc1ccc(-c2occc2-c2ccncc2)cc1	0.74	
Cc1ccc(C(=O)NC2CC2)cc1-c1cc2cnnc(-c3ccccc3Cl)c2n(C)c1=O	2.1	
Cc1ccc(C(=O)Nc2ccon2)cc1-c1nc2cnn(-c3c(F)cccc3F)c2n(C)c1=O	1.2	
COc1ccccc1CCNc1nc(NC(Cc2c[nH]c3ncccc23)C(N)=O)nc(N(C)[C@@H](C)c2ccccc2)n1 (some centres not stated)	> 40000	
Cn1cc(-c2cnc3[nH]cc(C(=O)c4c(F)ccc(NS(=O)(=O)c5cccc(OC(F)F)c5)c4F)c3c2)cn1	≤ 10000	
CC(C)OCc1ccc2c(c1)c1c3c(c4c(c1n2CCCO)Cc1ccccc1-4)C(=O)NC3	> 10000	
Cc1cnc(Cn2c(C)cc(OCc3ccc(F)cc3F)c(Br)c2=O)cn1	450	
O=c1ccc2c(-c3ccc(F)cc3F)nccc2n1-c1c(F)cccc1F	9.7	
CC(C)(C)c1cc(NC(=O)Nc2cccc(Oc3ccnc4[nH]c(=O)[nH]c34)c2)n(-c2ccccc2)n1	152	
Cc1ccc(S(=O)(=O)Nc2ccc(F)c(C(=O)c3c[nH]c4ncc(Cl)cc34)c2F)s1	≤ 10000	

same assay, conditions: concentration not given here

Compound	inhibition [%]
CCOc1nc2ccccc2c(-c2ccncc2)c1-c1ccc(F)cc1	34
CCC(=O)Oc1nc2ccccc2c(-c2ccncc2)c1-c1ccc(F)cc1	21
CCC(O)C(O)n1c(=O)c(-c2ccc(F)cc2)c(-c2ccncc2)c2ccccc21 (configuration not stated)	43
